Results: patent US7208505B2, “β3 adrenergic agonists” (Eli Lilly and Company, priority 2001, dated 2007)

molecular target: T1, human β3 adrenergic receptor (Homo sapiens, UniProt P13945); assay: whole cell receptor coupled c-AMP assay (Emax relative to isoproterenol); format: cell-based; conditions: % intrinsic activity relative to isoproterenol; transfected CHO cells
T1 construct: expressed in transfected cells
Source text: The genes encoding the human β1-adrenergic receptor (Frielle et al., Proc. Natl. Acad. Sci., 84:7920–7924, 1987), the human β2-adrenergic receptor (Kobika et al., Proc. Natl. Acad. Sci., 84:46–50, 1987, Emorine et al., Proc. Natl. Acad. Sci., 84:6995–6999, 1987) and the human β3 adrenergic receptor (Granneman et al., Molecular Pharmacology, 44(2):264–70, 1993) are individually subcloned into a phd expression vector (Grinnell et al., Bio/Technology, 5:1189–1192, 1987) and transfected into the DXB-11 Chinese hamster ovary (CHO) cell line by calcium phosphate precipitation methodology. The stably transfected cells are grown to 95% confluency in 95% Dulbecco's modified Eagles Medium (DMEM), 5% fetal bovine serum and 0.01% proline. Media is removed and the cells are washed with phosphate buffered (pH 7.4) saline (without magnesium and calcium). Cells are then lifted using an enzyme free cell dissociation solution (Specialty Media, Lavallette, N.J.) and pelleted by centrifugation.
Cells from each of the above cell lines are resuspended and added (20,000/well) to a 96-well plate. Cells are incubated at 37° C. with representative compounds of the invention for 20 minutes in buffer (Hank's balanced salt solution, 10 mM HEPES, 0.1% BSA, 1 mM L-ascorbic acid, 0.2% dimethyl sulfoxide, 1 mM 3-isobutyl-1-methylxanthine, pH 7.4). After halting the incubation with quench buffer (50 mM Na Acetate, 0.25% Triton X-100, pH 5.8), the c-AMP level is quantified by scintillation proximity assay (SPA) using a modification of the commercially available c-AMP kit (Amersham, Arlington Heights, Ill.) with rabbit anti-cAMP antibody (ICN Biomedicals, Aurora, Ohio) for the kit.
Sigmoidal dose response curves, from the whole cell receptor coupled c-AMP assay are fit to a four parameter logistic equation using non linear regression: y=(a−d)/(1+(Dose/c)^b)+d where a and d are responses at zero and maximal dose, b is the slope factor and c is the EC50 as previously described (DeLean et al., Am. J. Physiol., 235, E97-E102, 1978). EC50 is assessed as the concentration producing 50% of the maximum response to each agonist.
Isoproterenol is accepted in the art as a non-selective β3 agonist and is widely used as a comparator in evaluating the activity of compounds. See Trends in Pharm. Sci., 15:3, 1994. The % intrinsic activity (Emax) of representative compounds of the invention is assessed relative to isoproterenol by the compound's maximal response divided by the isoproterenol maximal response times 100.

T1 sequence (P13945 whole entry): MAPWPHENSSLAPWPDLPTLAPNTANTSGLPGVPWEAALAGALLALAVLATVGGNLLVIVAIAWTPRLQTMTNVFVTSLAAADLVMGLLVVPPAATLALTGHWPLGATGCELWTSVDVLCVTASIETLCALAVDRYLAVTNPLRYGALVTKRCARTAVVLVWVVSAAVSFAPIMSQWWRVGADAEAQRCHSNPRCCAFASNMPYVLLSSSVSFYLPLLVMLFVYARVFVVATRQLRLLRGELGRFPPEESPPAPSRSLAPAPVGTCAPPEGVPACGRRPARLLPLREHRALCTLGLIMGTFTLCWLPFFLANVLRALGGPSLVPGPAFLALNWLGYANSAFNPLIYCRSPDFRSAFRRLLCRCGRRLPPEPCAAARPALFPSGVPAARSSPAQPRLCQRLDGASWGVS

Row | SMILES | Emax [%]
1 | C[C@@H](Cc1c[nH]c2c(F)cc(F)cc12)NC[C@H](O)COc1ccccc1-c1cccs1 [Example 194] | 25.6

same assay, conditions: % intrinsic activity: maximal response divided by isoproterenol maximal response times 100; transfected CHO cells; average of at least 3 runs

Row | SMILES | Emax (%) ± SEM [%]
2 | CC(C)(Cc1c[nH]c2c(-c3ccsc3)cccc12)NC[C@H](O)COc1ccccc1-c1cccs1 [Example 106] | 78.0 ± 8.5
3 | CC(C)(Cc1c[nH]c2c(NS(C)(=O)=O)cccc12)NC[C@H](O)COc1ccccc1-c1ccc(S(N)(=O)=O)s1 [Example 30] | 90.0 ± 6.6
4 | CC(C)(Cc1c[nH]c2c(-c3cccc(C(F)(F)F)c3)cccc12)NC[C@H](O)COc1ccccc1-n1cccc1 [Example 39] | 71.7 ± 3.0
5 | CC(C)(Cc1c[nH]c2ccccc12)NC[C@H](O)COc1ccccc1-c1ccsc1.Cl [Example 51] | 58.3 ± 1.3
6 | CC(C)(Cc1c[nH]c2ccccc12)NC[C@H](O)COc1ccccc1-c1ccc(F)s1 [Example 126] | 76.1 ± 2.9
7 | CC(=O)c1ccc(-c2cccc3c(CC(C)(C)NC[C@H](O)COc4ccccc4-c4ccon4)c[nH]c23)cc1 [Example 49] | 44.2 ± 1.2
8 | CC(C)(Cc1c[nH]c2c(-c3ccc(C(F)(F)F)cc3C(F)(F)F)cccc12)NC[C@H](O)COc1ccccc1-c1ccon1 [Example 111] | 86.0 ± 4.0
9 | CC(C)(Cc1c[nH]c2cc(C#N)ccc12)NC[C@H](O)COc1ccccc1-c1cccs1 [Example 77] | 73.9 ± 1.3
10 | CC(C)(Cc1c[nH]c2c(OCC#N)cccc12)NC[C@H](O)COc1ccccc1-c1ccon1 [Example 132] | 53.6 ± 1.4
11 | CC(C)(Cc1c[nH]c2c(Oc3ncccc3C#N)cccc12)NC[C@H](O)COc1ccccc1-c1cccs1 [Example 112] | 97.7 ± 5.9
12 | CC(C)(Cc1c[nH]c2ccccc12)NC[C@H](O)COc1ccccc1-c1ccc(C#N)s1.Cl [Example 11] | 69.0 ± 2.3
13 | CC(C)(Cc1c[nH]c2cc(C#N)ccc12)NC[C@H](O)COc1ccccc1-c1ccon1 [Example 78] | 58.6 ± 0.9
14 | CC(C)(Cc1c[nH]c2c(-c3ccc(C(N)=O)cc3)cccc12)NC[C@H](O)COc1ccccc1-c1ccon1 [Example 103] | 57.1 ± 2.4
15 | CC(C)(Cc1c[nH]c2c(C=CS(C)(=O)=O)cccc12)NCC(O)COc1ccccc1-c1cccs1 (stereo not shown) [Example 141] | 65.0 ± 2.0
16 | CC(C)(Cc1c[nH]c2c(CCC(N)=O)cccc12)NC[C@H](O)COc1ccccc1-c1cccs1 [Example 140] | 83.5 ± 2.7
17 | O[C@@H](CNCCn1ccc2ccccc21)COc1ccccc1-c1cccs1 [Example 64] | 22.2 ± 4.5
18 | CC(=O)c1ccc(-c2cccc3c(CC(C)(C)NC[C@H](O)COc4ccccc4-c4cccs4)c[nH]c23)cc1 [Example 48] | 60.4 ± 6.0

Row | SMILES | Emax (%) ± SEM [%]
19 | CC(C)(Cc1c[nH]c2c(OCC#N)cccc12)NC[C@H](O)COc1ccccc1-c1cccs1 [Example 101] | 76.5 ± 12.6
20 | CC(Cc1cn(C)c2c(F)cc(F)cc12)NCC(O)COc1ccccc1-c1cccs1 (stereo not shown) [Example 197] | 34.5 ± 4.2
21 | C[C@@H](NC[C@H](O)COc1ccccc1-c1cccs1)C(=O)N1CCc2ccccc21 [Example 131] | 23.6 ± 1.7
22 | CC(C)(Cc1c[nH]c2ccccc12)NC[C@H](O)COc1ccccc1-n1cccc1 [Example 32] | 58.9 ± 1.9
23 | CC(C)(Cc1c[nH]c2c(Oc3ncccc3C#N)cccc12)NC[C@H](O)COc1ccccc1-c1ccon1 [Example 113] | 76.5 ± 3.0
24 | CC(C)(Cc1c[nH]c2ccccc12)NC[C@H](O)COc1ccccc1-c1cscn1 [Example 79] | 58.2 ± 2.3
25 | CC(C)(Cc1c[nH]c2ccccc12)NC[C@H](O)COc1ccccc1-c1ccns1 [Example 83] | 73.7 ± 2.0
26 | COC(=O)c1cccc2c(CC(C)(C)NC[C@H](O)COc3ccccc3-c3cccs3)c[nH]c12 [Example 76] | 67.6 ± 5.2
27 | CC(=O)c1ccc(-c2cccc3c(CC(C)(C)NC[C@H](O)COc4ccccc4-n4cccc4)c[nH]c23)cc1 [Example 50] | 38.4 ± 3.2
28 | CC(C)(Cc1c[nH]c2c(OCC#N)cccc12)NC[C@H](O)COc1ccccc1-c1cocn1.O=C(O)C(F)(F)F [Example 6] | 55.0 ± 3.4
29 | Cc1csc(-c2ccccc2OC[C@@H](O)CNC(C)(C)Cc2c[nH]c3c(OCC#N)cccc23)c1.O=C(O)C(F)(F)F [Example 22] | 66.0 ± 0.9
30 | C[C@H](Cn1ccc2ccccc21)NC[C@H](O)COc1ccccc1-c1nccs1 [Example 66] | 34.8 ± 3.2
31 | CC(C)(Cc1c[nH]c2c(OCC#N)cccc12)NC[C@H](O)COc1ccccc1-c1ccsc1.Cl [Example 52] | 74.0 ± 3.1
32 | COC(=O)c1ccc2[nH]cc(CC(C)(C)NC[C@H](O)COc3ccccc3-c3cccs3)c2c1 [Example 70] | 37.3 ± 2.7
33 | CC(C)(Cc1c[nH]c2c(OCC#N)cccc12)NCC(O)COc1ccccc1-c1ccoc1 (stereo not shown) [Example 5] | 66.0 ± 3.6
34 | CC(C)(Cc1c[nH]c2ccccc12)NC[C@H](O)COc1ccccc1-c1nncs1 [Example 82] | 45.5 ± 3.5

Other lines, results leading:

Row | Emax (%) ± SEM [%] | SMILES
35 | 62.1 ± 3.3 | CC(C)(Cc1c[nH]c2cc(OCC#N)ccc12)NC[C@H](O)COc1ccccc1-c1cccs1 [Example 168]
36 | 44.3 ± 3.9 | CC(C)(Cc1c[nH]c2c(OCC#N)cccc12)NC[C@H](O)COc1ccccc1-c1nncs1 [Example 160]
37 | 41.1 ± 3.5 | CC(C)(Cc1c[nH]c2c(C(N)=O)cccc12)NC[C@H](O)COc1ccccc1-c1ccon1 [Example 175]
38 | 57.6 ± 0.6 | CC(C)(Cc1c[nH]c2c(C(N)=O)cccc12)NC[C@H](O)COc1ccccc1-c1cccs1 [Example 174]
39 | 45.2 ± 8.4 | COC(=O)c1cccc2c1ccn2C[C@@H](C)NC[C@H](O)COc1ccccc1-c1cccs1 [Example 153]
40 | 71.2 ± 1.2 | CC(C)(Cc1c[nH]c2c(F)cccc12)NC[C@H](O)COc1ccccc1-c1cccs1 [Example 170]
41 | 69.6 ± 4.8 | CC(C)(Cc1c[nH]c2cc(F)ccc12)NC[C@H](O)COc1ccccc1-c1cccs1 [Example 158]
42 | 66.5 ± 0.4 | CC(C)(Cc1c[nH]c2c(C=Cn3ccnc3)cccc12)NC[C@H](O)COc1ccccc1-c1cccs1 [Example 186]

same assay, conditions: CHO, % intrinsic activity relative to isoproterenol; transfected CHO cells

Row | SMILES | Emax [%]
43 | CC(C)(Cc1c[nH]c2c(OCC#N)cccc12)NC[C@H](O)COc1ccccc1-c1ccc(C#N)s1 [Example 202] | 85

same assay, conditions: CHO, % intrinsic activity: maximal response divided by isoproterenol maximal response times 100; transfected CHO cells; average of at least 3 runs

Row | SMILES | Emax [%]
44 | CC(C)(Cc1c[nH]c2c(OCc3nnn[nH]3)cccc12)NC[C@H](O)COc1ccccc1-c1cccs1 [Example 229] | 83 ± 2.5
45 | CC(C)(Cc1c[nH]c2c(OCC(=O)O)cccc12)NC[C@H](O)COc1ccccc1-c1nccs1 [Example 234] | 66.4 ± 6.4
46 | CC(C)(Cc1c[nH]c2c(CCC(=O)O)cccc12)NC[C@H](O)COc1ccccc1-c1cccs1 [Example 228] | 79.5 ± 0.6
47 | CC(C)(Cc1c[nH]c2c(CCc3ccc(S(N)(=O)=O)cc3)cccc12)NC[C@H](O)COc1ccccc1-c1cccs1 [Example 254] | 80.9 ± 4.9
48 | C[C@H](Cn1ccc2c(C(=O)O)cccc21)NC[C@H](O)COc1ccccc1-c1cccs1 [Example 242] | 59.6 ± 2.8
49 | C[C@H](Cn1ccc2cc(C(=O)O)ccc21)NC[C@H](O)COc1ccccc1-c1cccs1 [Example 243] | 48.4 ± 2.5
50 | CC(C)(Cc1c[nH]c2c(OCC(=O)O)cccc12)NC[C@H](O)COc1ccccc1-c1ccon1 [Example 223] | 56.1 ± 2.8
51 | CC(C)(Cc1c[nH]c2c(CCc3ccc(-c4nnn[nH]4)cc3)cccc12)NC[C@H](O)COc1ccccc1-c1cccs1 [Example 251] | 86.3 ± 3.4
52 | CC(C)(Cc1c[nH]c2c(CCc3nnn[nH]3)cccc12)NC[C@H](O)COc1ccccc1-c1cccs1 [Example 232] | 79.5 ± 1.7
53 | CC(C)(Cc1c[nH]c2cccc(C(N)=O)c12)NC[C@H](O)COc1ccccc1-c1cccs1 [Example 257] | 81.8 ± 8.5
54 | CC(C)(Cc1c[nH]c2c(-c3ccc(C(=O)O)cc3)cccc12)NC[C@H](O)COc1ccccc1-c1ccon1 [Example 247] | 54.6 ± 2.4
55 | CC(C)(Cc1c[nH]c2c(-c3ccc(C(=O)O)s3)cccc12)NC[C@H](O)COc1ccccc1-c1cccs1 [Example 250] | 92.5 ± 5.1
